Legend:
[1] = target: T1, β-cardiac full-length myosin (Bos taurus, UniProt Q9BE39); test: basal ATPase, enzymatically coupled assay on purified myosin; type: biochemical
T1 construct: gene MYH7; full-length myosin in synthetic thick filaments; also HMM and S1-subfragment

[2] = target: T2, Human β-cardiac myosin (2-hep and 25-hep HMM) (Homo sapiens, UniProt P12883); test: basal ATPase assay of recombinant HMM; type: biochemical
T2 construct: gene MYH7
T2 sequence (P12883 1-855): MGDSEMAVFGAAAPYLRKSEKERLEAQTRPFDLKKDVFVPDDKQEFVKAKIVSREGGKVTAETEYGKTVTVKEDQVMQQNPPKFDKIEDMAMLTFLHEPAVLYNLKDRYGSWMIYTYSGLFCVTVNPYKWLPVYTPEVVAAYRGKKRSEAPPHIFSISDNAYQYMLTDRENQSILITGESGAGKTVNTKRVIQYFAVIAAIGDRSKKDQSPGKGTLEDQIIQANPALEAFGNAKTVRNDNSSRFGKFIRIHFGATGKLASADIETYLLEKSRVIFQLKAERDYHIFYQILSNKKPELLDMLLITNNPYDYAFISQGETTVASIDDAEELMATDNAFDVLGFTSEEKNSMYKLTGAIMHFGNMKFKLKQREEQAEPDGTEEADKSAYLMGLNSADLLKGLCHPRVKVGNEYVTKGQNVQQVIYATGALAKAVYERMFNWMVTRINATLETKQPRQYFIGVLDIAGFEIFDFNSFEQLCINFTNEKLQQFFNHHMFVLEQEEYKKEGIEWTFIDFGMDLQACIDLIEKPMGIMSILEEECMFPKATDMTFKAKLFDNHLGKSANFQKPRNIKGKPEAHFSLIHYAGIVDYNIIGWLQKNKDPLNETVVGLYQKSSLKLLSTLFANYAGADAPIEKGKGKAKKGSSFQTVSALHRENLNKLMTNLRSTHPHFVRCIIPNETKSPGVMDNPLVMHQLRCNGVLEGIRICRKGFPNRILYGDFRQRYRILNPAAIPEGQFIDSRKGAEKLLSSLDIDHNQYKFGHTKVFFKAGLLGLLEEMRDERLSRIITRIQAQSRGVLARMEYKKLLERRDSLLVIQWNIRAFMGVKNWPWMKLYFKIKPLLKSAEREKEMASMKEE

T1 sequence (Q9BE39 whole entry, the tested form may be a part): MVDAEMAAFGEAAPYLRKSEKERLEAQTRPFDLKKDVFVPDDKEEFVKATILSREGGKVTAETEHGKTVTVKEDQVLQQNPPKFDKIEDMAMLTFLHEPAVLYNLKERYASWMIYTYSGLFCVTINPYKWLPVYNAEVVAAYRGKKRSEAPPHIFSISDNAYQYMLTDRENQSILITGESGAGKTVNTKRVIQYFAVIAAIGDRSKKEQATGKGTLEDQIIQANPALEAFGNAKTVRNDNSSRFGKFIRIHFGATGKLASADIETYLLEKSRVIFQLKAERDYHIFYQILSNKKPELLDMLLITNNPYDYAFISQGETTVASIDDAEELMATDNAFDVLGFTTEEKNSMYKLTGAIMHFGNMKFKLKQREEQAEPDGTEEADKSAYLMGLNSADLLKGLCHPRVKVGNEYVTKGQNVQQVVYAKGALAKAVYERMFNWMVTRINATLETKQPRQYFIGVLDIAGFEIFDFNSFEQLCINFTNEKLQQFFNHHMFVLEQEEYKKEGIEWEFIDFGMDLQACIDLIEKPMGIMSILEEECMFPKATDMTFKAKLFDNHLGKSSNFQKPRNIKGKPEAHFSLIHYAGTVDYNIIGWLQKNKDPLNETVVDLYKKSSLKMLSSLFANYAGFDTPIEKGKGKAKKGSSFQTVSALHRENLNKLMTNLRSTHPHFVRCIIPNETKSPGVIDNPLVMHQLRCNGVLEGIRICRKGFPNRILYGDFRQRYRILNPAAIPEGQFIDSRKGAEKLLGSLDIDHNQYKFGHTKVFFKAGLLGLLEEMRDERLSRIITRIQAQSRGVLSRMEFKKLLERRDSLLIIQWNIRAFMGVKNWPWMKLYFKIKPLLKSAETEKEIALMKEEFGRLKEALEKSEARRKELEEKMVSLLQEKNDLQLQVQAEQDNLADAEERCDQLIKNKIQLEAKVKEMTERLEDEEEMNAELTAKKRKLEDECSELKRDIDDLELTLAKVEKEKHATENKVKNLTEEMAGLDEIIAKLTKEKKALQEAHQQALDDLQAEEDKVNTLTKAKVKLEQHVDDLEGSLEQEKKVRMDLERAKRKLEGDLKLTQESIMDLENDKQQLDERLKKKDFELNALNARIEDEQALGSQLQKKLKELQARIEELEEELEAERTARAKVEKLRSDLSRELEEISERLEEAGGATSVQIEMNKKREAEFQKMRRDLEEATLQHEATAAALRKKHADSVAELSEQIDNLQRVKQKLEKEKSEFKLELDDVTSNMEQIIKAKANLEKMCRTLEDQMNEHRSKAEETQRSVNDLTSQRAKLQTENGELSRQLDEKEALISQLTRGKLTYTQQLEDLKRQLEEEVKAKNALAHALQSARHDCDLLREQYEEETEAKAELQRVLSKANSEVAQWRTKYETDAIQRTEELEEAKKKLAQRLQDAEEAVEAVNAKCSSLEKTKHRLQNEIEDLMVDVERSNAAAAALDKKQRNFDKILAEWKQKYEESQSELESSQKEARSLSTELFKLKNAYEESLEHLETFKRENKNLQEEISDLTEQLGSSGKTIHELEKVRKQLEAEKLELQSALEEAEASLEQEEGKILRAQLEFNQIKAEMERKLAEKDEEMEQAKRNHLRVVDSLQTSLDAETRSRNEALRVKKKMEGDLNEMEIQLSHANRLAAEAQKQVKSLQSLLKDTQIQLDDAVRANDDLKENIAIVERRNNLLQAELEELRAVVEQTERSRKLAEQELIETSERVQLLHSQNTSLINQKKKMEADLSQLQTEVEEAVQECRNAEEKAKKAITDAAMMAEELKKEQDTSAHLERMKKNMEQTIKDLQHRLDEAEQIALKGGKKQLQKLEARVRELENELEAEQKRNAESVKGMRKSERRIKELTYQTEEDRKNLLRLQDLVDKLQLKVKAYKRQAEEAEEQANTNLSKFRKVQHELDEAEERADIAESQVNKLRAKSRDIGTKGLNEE

Nc1ncnc2c1ncn2[C@@H]1O[C@H](COP(=O)(O)OP(=O)(O)OP(=O)(O)O)[C@@H](O)[C@H]1O [ATP]
Raw values at pCa 8 [1]: 0.03 ± 0.01 s^−1 | Raw values at pCa 8 [2]: 0.1 ± 0.05 s^−1

From article PMC9629851, “Cardiac myosin filaments are directly regulated by calcium” (The Journal of General Physiology, 2022)
